Assay results reported in US9862754B2, “Peptide analogs for treating diseases and disorders” (KeyBioscience AG, priority 2011, dated 2018).
Bridge positions count the residues as written; N and C are the ends. Ends that are not written are not given here.

Columns and labels:
Assay type in all cases: in vivo, rat
[1] = Example 1: chronic oral treatment, body weight and food intake in DIO rats; conditions: for body weight: 4 weeks, vs oral vehicle (mimetic also vs oral sCT); for body weight / cumulative food intake: study end; for body weight / food intake: 1 mg/kg p.o. b.i.d. with 150 mg/kg 5-CNAC; for food intake: first week of treatment; for food intake / cumulative food intake: vs oral vehicle; for cumulative food intake: four weeks of treatment, 1 mg/kg p.o. b.i.d.
Procedure: (§1) The study was performed in male Levin-DIO rats (diet-sensitive) and Levin-DR (diet-resistant) (TacLevin: CD (SD) DIO) (Taconic, Hudson, N.Y., U.S.A.) obtained at age 6-7 weeks. On arrival, DIO rats were given high fat diet (60 kcal %) (#D12495, Research Diets Inc., New Brunswick, N.J., USA) and kept on the same diet for 16 weeks prior to and during the experiment. DR rats were given low-fat diet and served as control group. Animals were pair-wise housed throughout the study. Rats were handled and pre-dosed once daily with MilliQ H2O for 2-3 weeks prior to experimental start to reduce stress-induced hyperglycaemia. Baseline parameters were recorded in an fasting (6 h) condition. Rats were randomized into treatment groups based on fasting body weight (BW) and fasting plasma glucose (FPG). Body weight, food and water intake were recorded once weekly during the study period.
Oral sCT or calcitonin mimetic 1 solution was prepared on the day of dosing by mixing a carrier with the given compound based on the following calculations:
Animals treated with oral sCT or oral calcitonin mimetic 1 received doses of 1.0 mg/kg combined with 150 mg/kg 5-CNAC—all dissolved in milliQ H20.
Drug administration by per oral (p.o.) gavage b.i.d. (7-8 am and 3-4 pm) during the study period and as single dose in the morning prior to start of OGTT.
(§2) Statistical analysis was performed by one-way ANOVA followed by the Dunnett's post hoc test for multiple comparison. Student's t-test was performed to compare two paired group. All analysis was performed using GRAPHPAD PRISM software (GraphPad Prism, San Diego, Calif. U.S.A). Incremental area under curve (iAUC) during OGTT was calculated by the trapezoidal method. A value of P<0.05 was considered to be significant. All data are presented as mean±standard error of the mean (SEM).
One dose of oral sCT/calcitonin mimetic 1 containing 1 mg/kg compound was applied by gavage twice daily to four groups of rats for 4 weeks. An oral vehicle group served as dosing regimen control, respectively. * P<0.05, ** P<0.01, *** P<0.001 vs Vehicle. Results are presented as means±SEM.

[2] = Example 2: short-term oral treatment, body weight and food intake in DIO rats; conditions: for food intake: 0.5, 1 and 2 mg/kg p.o. b.i.d. for 3 days; for body weight: 0.5, 1 and 2 mg/kg p.o. b.i.d. for 3 days with 150 mg/kg 5-CNAC
Procedure: as §1, with “diet for 12 weeks prior” for “diet for 16 weeks prior”, “stress-induced hyperglycaemia. On the day prior to study start animals were given a single dose of vehicle. Baseline parameters” for “stress-induced hyperglycaemia. Baseline parameters”, “in an overnight fasting (16” for “in an fasting (6”, “overnight fasting (16 h) condition.” for “an fasting (6 h) condition.”, “were recorded prior to and at study end.” for “were recorded once weekly during the study period.”, “at study end.” for “the study period.”
Animals treated with oral sCT or oral calcitonin mimetic 1 received doses of 0.5 mg/kg, 1.0 mg/kg or 2.0 mg/kg combined with 150 mg/kg 5-CNAC—all dissolved in milliQ H20.
(§3) Drug administration were given by per oral (p.o.) gavage b.i.d. during the study period and as single dose in the morning prior to start of OGTT.
Following the initial (1st) OGTT, animals are randomized into treatment groups based on FBG and BW. Animals will be pre-treated 3 days (b.i.d.) prior to 2nd OGTT. Dosing will be performed in the morning (7-8 am) and afternoon (3-4 pm).
The study was performed in an x-over design with each animal being its own control.
Three different doses of oral sCT/calcitonin mimetic 1 containing 0.5, 1 and 2 mg/kg compound were applied by gavage twice daily to 4 groups of rats for 3 days. * P<0.05, ** P<0.01 vs oral sCT.

[3] = Example 1: fasting glycaemia in DIO rats; conditions: following 2 and 4 weeks of treatment, 1 mg/kg p.o. b.i.d.
Procedure: as §1
Blood sampling and glycemia were measured by heated tail venous puncture.
Whole blood glucose levels were determined with an ACCU-CHEK® Avia blood glucose meter (Roche Diagnostics, Rotkreuz, Switzerland). Blood (approx 300 ul) is collected in 1 ml MiniCollect K3EDTA plasma-tube (Greiner-Bio-One GmbH, Frickenhausen, Germany), inverted, and stored on ice. Tubes are centrifuged 3000×g (5000 rpm in table centrifuge) for 10 min at 4° C. and plasma obtained. Plasma samples are stored at −20° C. until analysis. […]

[4] = Example 3: short-term oral treatment, body weight and food intake in DIO rats
Procedure: as §1, with “diet for 12 weeks prior” for “diet for 16 weeks prior”, “reduce stress-induced hyperglycemia. On the day prior to study start animals were given a single dose of vehicle. Baseline parameters” for “reduce stress-induced hyperglycaemia. Baseline parameters”, “in an overnight fasting (16” for “in an fasting (6”, “overnight fasting (16 h) condition.” for “an fasting (6 h) condition.”, “were recorded prior to and at study end.” for “were recorded once weekly during the study period.”, “at study end.” for “the study period.”
Animals treated with oral sCT or oral UGP284/UGP298/UGP302 received doses of 0.5 mg/kg, 1.0 mg/kg or 2.0 mg/kg combined with 150 mg/kg 5-CNAC—all dissolved in milliQ H2O.
as §3
Following the initial (1st) OGTT, animals were randomized into treatment groups based on FBG and BW. Animals were pre-treated 3 days (b.i.d.) prior to 2nd OGTT. The study was performed in an x-over design with each animal being its own control.
as §2
FIG. 9A, FIG. 9B, FIG. 9C, FIG. 9D, FIG. 9E, and FIG. 9F show the effect of three different doses of oral sCT/UGP284/UGP298/UGP302 containing 0.5, 1 and 2 mg/kg compound were applied by gavage twice daily to 4 groups of rats for 3 days. * P<0.05, ** P<0.01 vs oral sCT. Results are presented as means±SEM.

## salmon calcitonin (CSNLSTCVLGKLSQELHKLQTYPRTNTGSGTP-NH2; disulfide 1-7; ends not checked) [sCT, reference compound]
[1]
  body weight: significantly reduced body weight from baseline
  food intake: significantly reduced food intake
  cumulative food intake: lack of difference
[2]
  food intake: dose-dependently decreased
  body weight: dose-dependently decreased
[3]
  fasting glycaemia: not significantly different from oral vehicle
[4]; 0.5, 1 and 2 mg/kg p.o. b.i.d. for 3 days with 150 mg/kg 5-CNAC, DIO rats
  body weight: dose-dependently decreased
[4]; 0.5, 1 and 2 mg/kg p.o. b.i.d. for 3 days, DIO rats
  food intake: dose-dependently decreased

## Ac-CSNLSTCVLGKLSQELHKLQTYPRTDVGANAP-NH2 (Ac-CSNLSTCVLGKLSQELHKLQTYPRTDVGANAP-NH2; ends and bridges not checked) [UGP302, calcitonin mimetic]
[1]
  body weight: more pronounced significant reduction in body weight
  food intake: significantly reduced food intake
  cumulative food intake: significantly reduced
[2]; 0.5 mg/kg p.o. b.i.d. for 3 days
  reduction in body weight vs oral sCT at same dose: significantly difference to oral sCT 0.5 mg/kg
[2]
  food intake: trended dose-dependently reduced compared to oral sCT
  body weight: dose-dependent superiority to oral sCT
[3]
  fasting glycaemia: trend towards superiority in fasting glycaemia
[4]; 0.5 mg/kg p.o. b.i.d. for 3 days, DIO rats
  reduction in body weight vs oral sCT at same dose: significantly difference to oral sCT 0.5 mg/kg
[4]; 0.5, 1 and 2 mg/kg doses p.o., male DIO rats
  energy balance vs equivalent doses of oral sCT: superiority to equivalent doses of oral sCT
